Square brackets hold non-standard residues; d marks the D form. Peptide text beside a SMILES is read from it. * marks the point of attachment. Myristoyl = CCCCCCCCCCCCCC(=O)*; PMO = not defined here; AEEA = NCCOCCOCC(=O)O; Ahx = NCCCCCC(=O)O; Mpa = O=C(O)CCS
Legend:
[1] = Serum stability in 50% human serum at 37 °C (RP-HPLC, one-phase decay half-life); details: for proteolytic stability compared to the parent L-peptides: 50% human serum, 37° C.; for half-life at 500 µM: human, serum (50% human serum)
Description: Serum stability analysis was conducted for each peptide (7×50 nmol) shown in Table 3 in 50% human serum (100 μL) at 37° C. At the end of each time point (0, 10, 30, 60, 120, 240, and 480 min), 1 M guanidine hydrochloride solution (200 μL) and ice-cold acetonitrile (600 μL) were added, and the serum-peptide solution was centrifuged at 14000 g for 10 min. The supernatant was lyophilised and redissolved in water (200 μL). All samples were analysed by RP-HPLC in the presence of phenol (50 nmol) as an internal standard, using water and acetonitrile containing 0.1% TFA, with a gradient of 10-80% acetonitrile over 30 min, and a flow rate of 1.5 mL/min. The percentage of peptide remaining was measured based on the area under curve. The percentage of peptide remaining versus time data was fitted to a non-linear one-phase exponential decay model in GraphPad Prism 9.2.0 to determine the half-life for each peptide.

[2] = tested on: SMN2; test: SMN2 splice-switching for exon 7 inclusion by RT-qPCR in SMA Type I patient-derived fibroblasts (Example 2); assay type: cell-based, human; details: FIG. 3B/3C; 0.5 μM and 1 μM
Excerpt: FIG. 3. (A) SMN2 pre-mRNA exon-7 skipping and production of 80-90% SMN2Δ7 mRNA transcripts. Peptide-PMO binding to Intron-splicing silencer (ISS-N1) and restoration of SMN2 splicing and production of full-length SMN2 mRNA transcripts. The positions of forward and reverse primers highlighted on full-length mRNA. (B)-(C) Effect of administration of peptides linked to PMO for SMN2 exon 7 inclusion, measured as change in the level of full length SMN2/HPRT1 in SMA patient-derived fibroblasts, each at two concentrations, 0.5 μM and 1 μM (or 1 μM and 5 μM in the case of PMO alone). UT, untreated. (B) For PMO constructs, from left to right: PMO; ApoE(141-150)-PMO; ApoE(133-150)-PMO. (C) For PMO constructs, from left to right: PMO; HA2-PMO; GALA-PMO; NLS-PMO; ApoE(141-150)-PMO; HA2-ApoE(141-150)-PMO; GALA-ApoE(141-150)-PMO; NLS-ApoE(141-150)-PMO; H4-ApoE(141-150)-PMO; A4-ApoE(141-150)-PMO. *P<0.05,**P<0.001, ***P<0.0001 cf. Untreated (control) and PMO (1 and 5 μM); #P<0.001 cf. GALA-/NLS-/H4-ApoE(141-150)-PMO (1 μM), ^<0.001 cf. ApoE(133-150)-PMO (0.5 and 1 μM), ^OP<0.001 cf. ApoE(141-150)-PMO (1 μM), ^&P<0.05 cf.
The inventors then evaluated cellular uptake and activity of these peptide-PMO conjugates in SMA Type I patient-derived fibroblasts with two copies of SMN2. Efficiency of uptake was assessed by RT-qPCR using SMN2 splice-switching for exon 7 inclusion (see FIG. 3A).
SMA Type I patient-derived fibroblasts (SMN2^+/+, GM03813, Coriell Cell Repositories) were maintained in Dulbecco's Modified Eagle's Medium (DMEM), supplemented with 10% foetal bovine serum (FBS), 1% Penicillin/Streptomycin and 1% L-glutamine (L-glu) at 37° C. Cells were plated in 6-well plates at a density of 3×10^5/well in 6 well plates one day prior to treatment with PMO and peptide-PMO conjugates. Cells used were from passage 8-22. PMO and the peptide-PMO conjugates were dissolved in nuclease-free water and diluted to appropriate concentrations in Opti-MEM reduced serum medium. Cells were treated for 4 hrs at 37° C. The transfection medium was then removed and replaced with growth medium in which the cells were incubated for 20 hrs.
Cells were washed with PBS and total cellular RNA was extracted using Trizol (TRI Reagent®, Sigma) according to the manufacturer's instructions (Life Technologies). 400 ng purified RNA was reverse transcribed into cDNA using BioRad iScript Reverse Transcription Supermix kit according to the manufacturer's instructions. The reverse transcription was performed using the Veriti Thermal Cycler (ThermoFisher Scientific) with the thermal cycling conditions: 25° C. for 5 min, 46° C. for 20 min, 95° C. for 1 min followed by a 4° C. holding period.
Quantitative PCR (20 ng cDNA/well) was carried out in a 96-well plate in triplicate using SsoAdvanced Universal SYBR Green Supermix on a Biorad CFX96 Touch™ Real-Time PCR detection system. The amplification was carried out using full-length SMN2-specific primers: Ex-6 Forward 5′-[…]-3′ (SEQ ID NO:10) and Ex7-8 reverse 5′[…]-3′ (SEQ ID NO:11). Human HPRT1 was used as the internal reference gene with forward primer sequence 5′-[…]-3′ (SEQ ID NO:12) and reverse primer sequence 5′-[…]-3′ (SEQ ID NO:13). The ΔΔCt method was used to correct the Ct values against the HPRT1 Ct values. The values obtained were normalised to the untreated control values which were set to 1. Statistical analysis was carried out using one-way ANOVA with post-hoc Bonferroni for multiple groups comparison (GraphPad Prism V.8, 2018). All data are expressed as mean±SEM from at least three independent experiments with p<0.05 considered significant.

[3] = tested on: SMA patient-derived fibroblasts; test: Confocal fluorescence uptake of Cy5-labelled peptide-PMO conjugates in SMA fibroblasts; assay type: cell-based, human; details: 1 μM, 1 hr at 37° C.
Description: FIG. 4. Representative confocal fluorescence microscopy images of SMA patient-derived fibroblasts treated with 1 μM of Cy5-labelled: (A) ApoE(141-150)-PMO; (B) HA2-ApoE(141-150)-PMO; (C) ApoE(133-150)-PMO; and (D) HA2-ApoE(133-150)-PMO, for 1 hr at 37° C.
SMA fibroblasts (6.0×10^4 cells/well) were plated onto a p-Slide 4 Well Ph+ Glass Bottom chamber slides precoated with poly-L-ornithine (Ibidi GmbH). After 24 hr, cells were incubated for 1 hr with Cy5-labelled peptide-PMO conjugates (1 μM or 5 μM) diluted in serum free Opti-MEM. At 10 min to end of 1 hr incubation, Hoechst (1:1000 dilution) was added to each well.

[4] = tested on: fibroblasts; test: Viability of fibroblasts by MTS assay (cytotoxicity); assay type: cell-based, human
Description: FIG. 5. Effect of the endosomal escape domain HA2 and lipidation of peptide-PMO conjugates on the viability of fibroblasts determined using MTS assay. UT, untreated control.
The peptide-PMO conjugates were tested up to 10 μM which is 10-fold greater than the concentration needed to achieve a high level of activity.

## CC(C)C[C@@H](NC(=O)[C@@H](CCCNC(=N)N)NC(=O)[C@H](NC(=O)[C@@H](CCCNC(=N)N)NC(=O)[C@@H](CC(C)C)NC(=O)[C@@H](C)NC(=O)[C@@H](CO)NC(=O)[C@@H](Cc1c[nH]cn1)NC(=O)[C@@H](CC(C)C)NC(=O)[C@@H](CCCNC(=N)N)NC(=O)[C@@H](CCCCN)NC(=O)[C@@H](CC(C)C)NC(=O)[C@@H](CCCNC(=N)N)NC(=O)[C@@H](CCCCN)NC(=O)[C@@H](CCCNC(=N)N)NC(=O)[C@@H](CC(C)C)NC(=O)[C@@H](CC(C)C)NC(=O)[C@@H](CCCNC(=N)N)NC(=O)COCCOCCNC(=O)CCS)C(C)C)C(=O)O [RI TPA-ApoE(133-150), TPA-mPEG-rllrkrlkrlhsalrvrl] ([Mpa][AEEA][dR][dL][dL][dR][dK][dR][dL][dK][dR][dL][dH][dS][dA][dL][dR][dV][dR][dL]-OH)
[1]
  proteolytic stability compared to the parent L-peptides: significantly higher proteolytic stability
  half-life at 500 µM: 11.2 h

## CC[C@@H](C)[C@@H](NC(=O)[C@@H](C)NC(=O)[C@@H](Cc1c[nH]cn1)NC(=O)[C@@H](Cc1ccccc1)NC(=O)[C@H](NC(=O)[C@@H](Cc1c[nH]cn1)NC(=O)CNC(=O)CNC(=O)[C@@H](Cc1c[nH]c2ccccc12)NC(=O)[C@@H](Cc1c[nH]cn1)NC(=O)COCCOCCNC(=O)CCS)[C@H](C)CC)C(=O)N[C@H](C)C(=O)N[C@H](Cc1c[nH]cn1)C(=O)N[C@H](Cc1ccccc1)C(=O)N[C@H](CC(C)C)C(=O)NCC(=O)NCCOCCOCC(=O)N[C@@H](CCCCN)C(=O)NCCOCCOCC(=O)N[C@H](CCCNC(=N)N)C(=O)N[C@H](CC(C)C)C(=O)N[C@H](CC(C)C)C(=O)N[C@H](CCCNC(=N)N)C(=O)N[C@H](CCCCN)C(=O)N[C@H](CCCNC(=N)N)C(=O)N[C@H](CC(C)C)C(=O)N[C@H](CCCCN)C(=O)N[C@H](CCCNC(=N)N)C(=O)N[C@H](CC(C)C)C(=O)N[C@H](Cc1c[nH]cn1)C(=O)N[C@H](CO)C(=O)N[C@H](C)C(=O)N[C@H](CC(C)C)C(=O)N[C@H](CCCNC(=N)N)C(=O)N[C@@H](C(=O)N[C@H](CCCNC(=N)N)C(=O)N[C@H](CC(C)C)C(=O)O)C(C)C [RI TPA-HA2-ApoE(133-150), TPA-mPEG-hwgghifhaiahflg-mPEG-K-mPEG-rllrkrlkrlhsalrvrl] ([Mpa][AEEA][dH][dW]GG[dH][dI][dF][dH][dA][dI][dA][dH][dF][dL]G[AEEA]K[AEEA][dR][dL][dL][dR][dK][dR][dL][dK][dR][dL][dH][dS][dA][dL][dR][dV][dR][dL]-OH)
[1]
  proteolytic stability compared to the parent L-peptides: significantly higher proteolytic stability
  half-life at 500 µM: 1.6 h

## CC[C@@H](C)[C@@H](NC(=O)[C@@H](C)NC(=O)[C@@H](Cc1c[nH]cn1)NC(=O)[C@@H](Cc1ccccc1)NC(=O)[C@H](NC(=O)[C@@H](Cc1c[nH]cn1)NC(=O)CNC(=O)CNC(=O)[C@@H](Cc1c[nH]c2ccccc12)NC(=O)[C@@H](Cc1c[nH]cn1)NC(=O)COCCOCCNC(=O)CCS)[C@H](C)CC)C(=O)N[C@H](C)C(=O)N[C@H](Cc1c[nH]cn1)C(=O)N[C@H](Cc1ccccc1)C(=O)N[C@H](CC(C)C)C(=O)NCC(=O)NCCOCCOCC(=O)N[C@@H](CCCCN)C(=O)NCCOCCOCC(=O)N[C@H](CCCNC(=N)N)C(=O)N[C@H](CC(C)C)C(=O)N[C@H](CC(C)C)C(=O)N[C@H](CCCNC(=N)N)C(=O)N[C@H](CCCCN)C(=O)N[C@H](CCCNC(=N)N)C(=O)N[C@H](CC(C)C)C(=O)N[C@H](CCCCN)C(=O)N[C@H](CCCNC(=N)N)C(=O)N[C@H](CC(C)C)C(=O)O [RI TPA-HA2-ApoE(141-150), TPA-mPEG-hwgghifhaiahflg-mPEG-K-mPEG-rllrkrlkrl] ([Mpa][AEEA][dH][dW]GG[dH][dI][dF][dH][dA][dI][dA][dH][dF][dL]G[AEEA]K[AEEA][dR][dL][dL][dR][dK][dR][dL][dK][dR][dL]-OH)
[1]
  half-life at 500 µM: 0.4 h

## CC[C@H](C)[C@H](NC(=O)[C@H](C)NC(=O)[C@H](Cc1c[nH]cn1)NC(=O)[C@H](Cc1ccccc1)NC(=O)[C@H](CC(C)C)NC(=O)CNC(=O)COCCOCCNC(=O)CCS)C(=O)N[C@@H](C)C(=O)N[C@@H](Cc1c[nH]cn1)C(=O)N[C@@H](Cc1ccccc1)C(=O)N[C@H](C(=O)N[C@@H](Cc1c[nH]cn1)C(=O)NCC(=O)NCC(=O)N[C@@H](Cc1c[nH]c2ccccc12)C(=O)N[C@@H](Cc1c[nH]cn1)C(=O)NCCOCCOCC(=O)N[C@@H](CC(C)C)C(=O)N[C@@H](CCCNC(=N)N)C(=O)N[C@H](C(=O)N[C@@H](CCCNC(=N)N)C(=O)N[C@@H](CC(C)C)C(=O)N[C@@H](C)C(=O)N[C@@H](CO)C(=O)N[C@@H](Cc1c[nH]cn1)C(=O)N[C@@H](CC(C)C)C(=O)N[C@@H](CCCNC(=N)N)C(=O)N[C@@H](CCCCN)C(=O)N[C@@H](CC(C)C)C(=O)N[C@@H](CCCNC(=N)N)C(=O)N[C@@H](CCCCN)C(=O)N[C@@H](CCCNC(=N)N)C(=O)N[C@@H](CC(C)C)C(=O)N[C@@H](CC(C)C)C(=O)N[C@@H](CCCNC(=N)N)C(=O)O)C(C)C)[C@@H](C)CC [TPA-HA2-ApoE(133-150), TPA-mPEG-GLFHAIAHFIHGGWH-mPEG-LR VRLASHLRKLRKRLLR] ([Mpa][AEEA]GLFHAIAHFIHGGWH[AEEA]LRVRLASHLRKLRKRLLR-OH)
[1]
  half-life at 500 µM: 1.1 h

## Ac-LRKLRKRLLR-X-C-PMO [ApoE(141-150)-PMO]
[2]
  exon-7 inclusion activity, dependence on concentration: concentration-dependent increase in activity
[3]
  intracellular fluorescence pattern: punctate intracellular fluorescence pattern

## Myr-GLFHAIAHFIHGGWH-X-LRKLRKRLLR-X-C-PMO ({Myristoyl-Gly-Leu-Phe-H2N-Ala-Ile-Ala-H2N-Phe-Ile-H2N-Gly-Gly-Trp-H2N-Ahx}-LRKLRKRLLR[Ahx]C-{PMO}; reading uncertain; also: printed as Myr-GLFHAIAHFIHGGWH-X-LRKLRKRLLR-X-C-PMO; UniProt P02649 159-168, looked up, fragment) [Myr-HA2-ApoE(141-150)-PMO]
[4]; at 10 μM
  effect on cell viability: decrease in cell viability
[4]; up to 5 μM
  effect on cell viability: None of the P-PMO conjugates had a significant effect on cell viability

## Myr-GLFHAIAHFIHGGWH-X-LRVRLASHLRKLRKRLLR-X-C-PMO [Myr-HA2-ApoE(133-150)-PMO]
[4]; at 10 μM
  effect on cell viability: decrease in cell viability
[4]; up to 5 μM
  effect on cell viability: None of the P-PMO conjugates had a significant effect on cell viability

Source: patent publication US20230399378A1, “PEPTIDE-BASED DELIVERY OF AGENTS” (THE FLOREY INSTITUTE OF NEUROSCIENCE AND MENTAL HEALTH, priority 2020, published 2023)
